Test results taken from patent EP0490193A1, “Complex of an actif enantiomer of ibuprofen with cyclodextrin” (priority 1990, dated 1992).

Key:
[1] = Ratten; cited from earlier work
[2] = nach Ibuprofengaben; cited from earlier work
[3] = In vitro diffusion study, concentration in the receptor cell, buffer pH 1,2, 37° C (Tabelle II); type: in vitro ADME; conditions: Pufferlösung pH = 1,2, 37° C
Excerpt: Um die gute biologische Verfügbarkeit des S-(+)-Ibuprofens aus der komplexierten Form zu testen, wurden in vitro-Diffusionsversuche durchgeführt. Die Diffusion des S-(+)-Ibuprofens aus dem β-Cyclodextrin-Komplex war schneller, die S-(+)-Ibuprofen-Menge in der Rezeptorzelle betrug das 1,6fache bei pH = 1,2 nach 6 Stunden im Vergleich zum freien Arzneimittel (Tabelle II).

[4] = Dissolution properties in water at 37° C (Tabelle I); type: physicochemical; conditions: Wasser
[5] = synoviale Flüssigkeit, Patienten mit Arthritis; cited from earlier work

| Compound | Absorptionsgrad [1] | aus dem Urin zurückgewonnen [2] | Konzentration von S-(+)-Ibuprofen in der Rezeptorzelle ([3]; Zeit 90 min) | Konzentration von S-(+)-Ibuprofen in der Rezeptorzelle ([3]; Zeit 120 min) | Konzentration von S-(+)-Ibuprofen in der Rezeptorzelle ([3]; Zeit 180 min) | Konzentration von S-(+)-Ibuprofen in der Rezeptorzelle ([3]; Zeit 240 min) | Konzentration von S-(+)-Ibuprofen in der Rezeptorzelle ([3]; Zeit 360 min) | gelöstes Ibuprofen ([4]; Zeit 1 min) | gelöstes Ibuprofen ([4]; Zeit 5 min) | gelöstes Ibuprofen ([4]; Zeit 10 min) | gelöstes Ibuprofen ([4]; Zeit 15 min) | gelöstes Ibuprofen ([4]; Zeit 30 min) | gelöstes Ibuprofen ([4]; Zeit 60 min) | Konzentrationsverhältnis S zu R [5] |
| --- | --- | --- | --- | --- | --- | --- | --- | --- | --- | --- | --- | --- | --- | --- |
| CC(C)Cc1ccc(C(C)C(=O)O)cc1 (racemic) [Ibuprofen] | gleich | 5,0% | – | – | – | – | – | – | – | – | – | – | – | – |
| CC(C)Cc1ccc([C@H](C)C(=O)O)cc1 [S-(+)-Ibuprofen, S-(+)-2-(-4-Isobutylphenyl)propionsäure] | – | – | 0,022 mg/ml | 0,027 mg/ml | 0,038 mg/ml | 0,047 mg/ml | 0,061 mg/ml | 0,04 mg/ml | 0,10 mg/ml | 0,12 mg/ml | 0,13 mg/ml | 0,12 mg/ml | 0,12 mg/ml | 2,1 |
